Experimental data taken from patent US11414379B2, “SPAK kinase inhibitors as neuroprotective agents” (United States Government as represented by the Department …, priority 2018, dated 2022).

Key:
Experiment in all cases: Kinase panel (Dundee profiling)
Assay type in all cases: biochemical
Conditions in all cases: read-out: % residual kinase activity
BRK = BRK (Homo sapiens, UniProt Q13882)
Procedure, shortened: (§1)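 Percent residual kinase activity versus DMSO control is reported, mean±SEM of three determinations. Compound was tested at 10 μM and at 1 μM in standard radioisotopic enzyme assays with recombinant kinases.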

BRSK1 = BRSK1 (Homo sapiens, UniProt Q8TDC3)
Procedure, shortened: as §1

CAMK1 = CAMK1 (Homo sapiens, UniProt Q14012)
Chain of CAMK1 (Q14012 whole entry, species assumed): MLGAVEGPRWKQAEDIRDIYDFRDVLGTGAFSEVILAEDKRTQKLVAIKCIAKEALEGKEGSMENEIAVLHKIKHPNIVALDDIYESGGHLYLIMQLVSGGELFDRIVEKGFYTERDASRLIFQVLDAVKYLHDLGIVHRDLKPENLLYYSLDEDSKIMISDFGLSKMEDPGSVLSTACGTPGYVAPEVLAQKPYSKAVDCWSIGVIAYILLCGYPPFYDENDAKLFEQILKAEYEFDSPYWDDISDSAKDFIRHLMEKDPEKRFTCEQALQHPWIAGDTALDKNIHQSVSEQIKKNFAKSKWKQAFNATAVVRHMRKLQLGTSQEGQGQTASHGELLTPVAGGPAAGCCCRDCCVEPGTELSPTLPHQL
Procedure, shortened: as §1

CSK = CSK (Homo sapiens, UniProt P41240)
Procedure, shortened: as §1

DDR2 = DDR2 (Homo sapiens, UniProt Q16832)
Procedure, shortened: as §1

DYRK2 = DYRK2 (Homo sapiens, UniProt Q92630)
Procedure, shortened: as §1

DYRK3 = DYRK3 (Homo sapiens, UniProt O43781)
Procedure, shortened: as §1

ERK5 = ERK5 (Homo sapiens, UniProt Q13164)
Procedure, shortened: as §1

GCK = GCK (Homo sapiens, UniProt Q12851)
Procedure, shortened: as §1

IGF-1R = IGF-1R (Homo sapiens, UniProt P08069)
Procedure, shortened: as §1

IR = IR (Homo sapiens, UniProt P06213)
Procedure, shortened: as §1

Lck = Lck (Homo sapiens, UniProt P06239)
Chain of Lck (P06239 whole entry, species assumed): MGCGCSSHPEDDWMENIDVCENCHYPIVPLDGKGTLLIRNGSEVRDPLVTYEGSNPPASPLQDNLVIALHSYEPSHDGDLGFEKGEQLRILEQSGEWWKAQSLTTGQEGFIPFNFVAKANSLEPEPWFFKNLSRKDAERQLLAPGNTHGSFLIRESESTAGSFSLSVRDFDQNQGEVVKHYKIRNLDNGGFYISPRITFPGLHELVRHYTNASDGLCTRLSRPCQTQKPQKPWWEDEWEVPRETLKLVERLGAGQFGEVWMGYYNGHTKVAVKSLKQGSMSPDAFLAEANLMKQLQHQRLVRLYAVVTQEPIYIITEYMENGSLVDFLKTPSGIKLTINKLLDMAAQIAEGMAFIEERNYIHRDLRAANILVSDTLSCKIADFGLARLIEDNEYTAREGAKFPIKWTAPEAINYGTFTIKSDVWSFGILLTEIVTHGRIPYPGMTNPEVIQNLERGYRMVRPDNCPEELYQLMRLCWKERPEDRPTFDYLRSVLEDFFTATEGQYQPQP
Procedure, shortened: as §1

MARK4 = MARK4 (Homo sapiens, UniProt Q96L34)
Procedure, shortened: as §1

MINK1 = MINK1 (Homo sapiens, UniProt Q8N4C8)
Procedure, shortened: as §1

MKK6 = MKK6 (Homo sapiens, UniProt P52564)
Procedure, shortened: as §1

MLK1 = MLK1 (Homo sapiens, UniProt P80192)
Procedure, shortened: as §1

MST3 = MST3 (Homo sapiens, UniProt Q9Y6E0)
Chain of MST3 (Q9Y6E0 whole entry, species assumed): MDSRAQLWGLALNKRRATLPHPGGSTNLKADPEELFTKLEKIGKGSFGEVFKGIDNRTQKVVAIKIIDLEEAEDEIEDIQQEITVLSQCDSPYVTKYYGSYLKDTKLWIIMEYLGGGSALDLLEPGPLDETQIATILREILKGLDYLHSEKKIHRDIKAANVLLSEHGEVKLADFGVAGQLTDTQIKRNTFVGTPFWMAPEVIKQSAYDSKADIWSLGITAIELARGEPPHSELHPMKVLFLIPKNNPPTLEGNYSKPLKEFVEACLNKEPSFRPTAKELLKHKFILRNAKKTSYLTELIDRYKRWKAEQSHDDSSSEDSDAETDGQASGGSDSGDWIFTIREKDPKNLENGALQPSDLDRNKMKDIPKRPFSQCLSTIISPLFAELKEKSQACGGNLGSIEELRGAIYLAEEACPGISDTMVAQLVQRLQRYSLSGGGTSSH
Procedure, shortened: as §1

MST4 = MST4 (Homo sapiens, UniProt Q9P289)
Procedure, shortened: as §1

PAK2 = PAK2 (Homo sapiens, UniProt Q13177)
Procedure, shortened: as §1

PAK6 = PAK6 (Homo sapiens, UniProt Q9NQU5)
Procedure, shortened: as §1

PKA = PKA (Homo sapiens, UniProt P17612)
Procedure, shortened: as §1

SGK1 = SGK1 (Homo sapiens, UniProt O00141)
Chain of SGK1 (O00141 whole entry, species assumed): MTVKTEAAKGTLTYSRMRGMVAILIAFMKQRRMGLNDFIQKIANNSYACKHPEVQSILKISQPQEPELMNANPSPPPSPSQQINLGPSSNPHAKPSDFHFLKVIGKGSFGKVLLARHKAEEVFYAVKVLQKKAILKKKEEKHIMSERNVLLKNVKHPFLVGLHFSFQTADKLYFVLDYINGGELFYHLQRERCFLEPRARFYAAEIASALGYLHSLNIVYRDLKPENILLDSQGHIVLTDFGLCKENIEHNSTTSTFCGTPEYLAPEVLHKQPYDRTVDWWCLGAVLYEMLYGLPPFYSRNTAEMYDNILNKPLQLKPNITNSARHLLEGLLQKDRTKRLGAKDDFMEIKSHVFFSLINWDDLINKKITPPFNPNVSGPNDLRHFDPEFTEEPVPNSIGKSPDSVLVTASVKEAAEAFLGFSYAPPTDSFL
Procedure, shortened: as §1

Src = Src (Homo sapiens, UniProt P12931)
Procedure, shortened: as §1

TAK1 = TAK1 (Homo sapiens, UniProt O43318)
Chain of TAK1 (O43318 1-303 limits assumed): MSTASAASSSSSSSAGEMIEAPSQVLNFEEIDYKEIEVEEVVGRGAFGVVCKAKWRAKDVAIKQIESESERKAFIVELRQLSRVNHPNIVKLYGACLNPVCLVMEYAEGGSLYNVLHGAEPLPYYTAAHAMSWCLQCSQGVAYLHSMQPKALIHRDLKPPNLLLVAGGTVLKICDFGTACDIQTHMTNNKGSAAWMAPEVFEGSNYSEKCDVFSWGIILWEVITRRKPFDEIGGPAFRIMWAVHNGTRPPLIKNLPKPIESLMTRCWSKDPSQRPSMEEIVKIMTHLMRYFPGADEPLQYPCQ
Chain of TAK1 (Q15750 437-504 partner limits assumed): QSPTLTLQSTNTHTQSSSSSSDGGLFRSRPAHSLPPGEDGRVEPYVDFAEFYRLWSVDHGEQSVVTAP
Procedure, shortened: as §1

TIE2 = TIE2 (Homo sapiens, UniProt Q02763)
Procedure, shortened: as §1

TLK1 = TLK1 (Homo sapiens, UniProt Q9UKI8)
Procedure, shortened: as §1

TTBK1 = TTBK1 (Homo sapiens, UniProt Q5TCY1)
Chain of TTBK1 (Q5TCY1 whole entry, species assumed): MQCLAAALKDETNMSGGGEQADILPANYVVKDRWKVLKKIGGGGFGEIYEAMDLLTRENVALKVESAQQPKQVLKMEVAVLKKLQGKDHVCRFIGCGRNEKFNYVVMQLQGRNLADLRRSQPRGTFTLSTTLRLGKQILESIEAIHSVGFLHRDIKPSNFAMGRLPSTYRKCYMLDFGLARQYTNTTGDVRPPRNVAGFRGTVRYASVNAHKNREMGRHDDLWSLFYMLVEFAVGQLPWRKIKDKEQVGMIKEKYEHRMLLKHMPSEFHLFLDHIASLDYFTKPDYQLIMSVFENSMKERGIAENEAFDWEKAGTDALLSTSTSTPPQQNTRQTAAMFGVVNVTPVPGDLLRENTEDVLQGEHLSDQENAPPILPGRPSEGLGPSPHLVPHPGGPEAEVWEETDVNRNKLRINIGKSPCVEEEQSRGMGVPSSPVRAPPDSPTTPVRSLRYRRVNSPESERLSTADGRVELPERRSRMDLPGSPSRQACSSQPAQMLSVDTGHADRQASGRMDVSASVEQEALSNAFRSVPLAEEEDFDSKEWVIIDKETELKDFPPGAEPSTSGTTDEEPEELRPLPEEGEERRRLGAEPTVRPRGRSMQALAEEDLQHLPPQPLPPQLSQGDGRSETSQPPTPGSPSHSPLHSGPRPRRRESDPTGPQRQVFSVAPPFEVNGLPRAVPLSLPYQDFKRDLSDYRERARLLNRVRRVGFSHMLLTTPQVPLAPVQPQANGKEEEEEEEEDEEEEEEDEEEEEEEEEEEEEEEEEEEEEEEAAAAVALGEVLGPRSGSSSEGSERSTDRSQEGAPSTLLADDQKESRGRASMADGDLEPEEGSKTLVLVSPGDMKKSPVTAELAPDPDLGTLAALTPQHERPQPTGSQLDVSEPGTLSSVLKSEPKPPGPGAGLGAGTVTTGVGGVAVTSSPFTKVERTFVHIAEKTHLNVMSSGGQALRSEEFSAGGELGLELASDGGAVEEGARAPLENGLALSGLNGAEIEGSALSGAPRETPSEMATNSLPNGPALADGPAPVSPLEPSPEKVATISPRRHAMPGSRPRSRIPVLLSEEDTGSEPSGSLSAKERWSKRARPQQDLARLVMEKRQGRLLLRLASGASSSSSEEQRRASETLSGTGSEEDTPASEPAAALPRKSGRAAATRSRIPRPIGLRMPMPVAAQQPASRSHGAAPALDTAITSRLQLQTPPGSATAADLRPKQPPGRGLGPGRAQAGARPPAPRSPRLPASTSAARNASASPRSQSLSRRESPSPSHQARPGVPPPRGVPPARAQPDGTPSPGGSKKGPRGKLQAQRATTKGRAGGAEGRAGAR
Procedure, shortened: as §1

TTK = TTK (Homo sapiens, UniProt P33981)
Procedure, shortened: as §1

ULK2 = ULK2 (Homo sapiens, UniProt Q8IYT8)
Chain of ULK2 (Q8IYT8 whole entry, species assumed): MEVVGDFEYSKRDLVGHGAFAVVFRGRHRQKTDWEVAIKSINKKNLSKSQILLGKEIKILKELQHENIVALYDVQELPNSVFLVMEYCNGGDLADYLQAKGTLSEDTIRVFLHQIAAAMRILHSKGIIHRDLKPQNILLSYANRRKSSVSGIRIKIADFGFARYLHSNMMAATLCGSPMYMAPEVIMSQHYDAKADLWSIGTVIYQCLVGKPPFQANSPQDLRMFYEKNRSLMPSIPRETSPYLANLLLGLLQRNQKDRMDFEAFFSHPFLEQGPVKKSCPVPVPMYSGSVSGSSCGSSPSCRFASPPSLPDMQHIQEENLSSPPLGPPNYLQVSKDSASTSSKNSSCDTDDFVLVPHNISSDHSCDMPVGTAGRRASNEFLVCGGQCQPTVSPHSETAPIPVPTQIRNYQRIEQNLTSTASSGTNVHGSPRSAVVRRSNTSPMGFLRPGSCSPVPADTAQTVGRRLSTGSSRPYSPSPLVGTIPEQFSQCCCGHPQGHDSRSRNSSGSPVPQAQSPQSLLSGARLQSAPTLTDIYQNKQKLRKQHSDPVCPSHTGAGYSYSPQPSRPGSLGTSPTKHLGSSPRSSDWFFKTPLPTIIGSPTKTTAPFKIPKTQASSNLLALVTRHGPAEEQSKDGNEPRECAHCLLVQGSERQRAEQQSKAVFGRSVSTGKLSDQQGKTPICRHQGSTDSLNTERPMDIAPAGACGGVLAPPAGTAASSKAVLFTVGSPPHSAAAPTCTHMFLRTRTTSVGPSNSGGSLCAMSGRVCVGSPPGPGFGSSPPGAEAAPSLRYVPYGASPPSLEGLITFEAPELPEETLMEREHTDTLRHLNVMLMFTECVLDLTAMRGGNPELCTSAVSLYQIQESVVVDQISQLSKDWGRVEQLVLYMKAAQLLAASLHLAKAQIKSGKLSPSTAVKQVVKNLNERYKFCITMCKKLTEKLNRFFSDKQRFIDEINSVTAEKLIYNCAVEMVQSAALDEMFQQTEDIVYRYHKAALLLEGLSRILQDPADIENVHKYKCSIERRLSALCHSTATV
Procedure, shortened: as §1

VEG-FR = VEG-FR (Homo sapiens, UniProt P17948)
Procedure, shortened: as §1

WNK1 = WNK1 (Homo sapiens, UniProt Q9H4A3)
Procedure, shortened: as §1

p38a MAPK = p38a MAPK (Homo sapiens, UniProt Q16539)
Procedure, shortened: as §1

Chain of BRK (Q13882 whole entry, species assumed): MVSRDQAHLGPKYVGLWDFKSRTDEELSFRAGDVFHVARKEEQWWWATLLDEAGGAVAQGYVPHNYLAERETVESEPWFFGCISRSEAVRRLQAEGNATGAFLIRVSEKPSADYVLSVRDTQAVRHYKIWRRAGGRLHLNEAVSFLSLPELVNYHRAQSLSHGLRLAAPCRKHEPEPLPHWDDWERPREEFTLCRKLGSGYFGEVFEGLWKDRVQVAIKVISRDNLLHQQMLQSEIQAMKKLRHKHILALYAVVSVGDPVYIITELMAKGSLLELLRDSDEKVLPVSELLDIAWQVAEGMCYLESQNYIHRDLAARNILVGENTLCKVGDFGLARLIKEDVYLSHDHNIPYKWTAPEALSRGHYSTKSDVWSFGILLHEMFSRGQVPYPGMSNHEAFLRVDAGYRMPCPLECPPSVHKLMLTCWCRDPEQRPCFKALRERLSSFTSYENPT

Cc1cc(C(C#N)c2ccc(Cl)cc2)c(Cl)cc1NC(=O)c1cc(Cl)ccc1O (stereo not shown) [ZT-1a, 5-chloro-N-(5-chloro-4-((4-chlorophenyl)(cyano)methyl)-2-methylphenyl)-2-hydroxy-benzamide]
remaining activity at 1 µM (BRK; 1 μM): 116 ± 12%
remaining activity at 10 µM (BRK; 10 μM): 103 ± 2%
remaining activity at 1 µM (BRSK1; 1 μM): 108 ± 14%
remaining activity at 10 µM (BRSK1; 10 μM): 88 ± 22%
remaining activity at 1 µM (CAMK1; 1 μM): 60 ± 5%
remaining activity at 10 µM (CAMK1; 10 μM): 71 ± 31%
remaining activity at 1 µM (CSK; 1 μM): 96 ± 8%
remaining activity at 10 µM (CSK; 10 μM): 106 ± 29%
remaining activity at 1 µM (DDR2; 1 μM): 111 ± 20%
remaining activity at 10 µM (DDR2; 10 μM): 99 ± 8%
remaining activity at 1 µM (DYRK2; 1 μM): 111 ± 15%
remaining activity at 10 µM (DYRK2; 10 μM): 97 ± 10%
remaining activity at 1 µM (DYRK3; 1 μM): 113 ± 6%
remaining activity at 10 µM (DYRK3; 10 μM): 56 ± 15%
remaining activity at 1 µM (ERK5; 1 μM): 120 ± 9%
remaining activity at 10 µM (ERK5; 10 μM): 114 ± 5%
remaining activity at 1 µM (GCK; 1 μM): 112 ± 4%
remaining activity at 10 µM (GCK; 10 μM): 97 ± 3%
remaining activity at 1 µM (IGF-1R; 1 μM): 145 ± 2%
remaining activity at 10 µM (IGF-1R; 10 μM): 123 ± 3%
remaining activity at 1 µM (IR; 1 μM): 105 ± 2%
remaining activity at 10 µM (IR; 10 μM): 86 ± 13%
remaining activity at 1 µM (Lck; 1 μM): 112 ± 13%
remaining activity at 10 µM (Lck; 10 μM): 127 ± 14%
remaining activity at 1 µM (MARK4; 1 μM): 68 ± 8%
remaining activity at 10 µM (MARK4; 10 μM): 59 ± 9%
remaining activity at 1 µM (MINK1; 1 μM): 107 ± 5%
remaining activity at 10 µM (MINK1; 10 μM): 108 ± 6%
remaining activity at 1 µM (MKK6; 1 μM): 102 ± 12%
remaining activity at 10 µM (MKK6; 10 μM): 82 ± 16%
remaining activity at 1 µM (MLK1; 1 μM): 94 ± 4%
remaining activity at 10 µM (MLK1; 10 μM): 81 ± 21%
remaining activity at 1 µM (MST3; 1 μM): 109 ± 8%
remaining activity at 10 µM (MST3; 10 μM): 113 ± 15%
remaining activity at 1 µM (MST4; 1 μM): 63 ± 10%
remaining activity at 10 µM (MST4; 10 μM): 63%
remaining activity at 1 µM (PAK2; 1 μM): 110 ± 4%
remaining activity at 10 µM (PAK2; 10 μM): 93 ± 8%
remaining activity at 1 µM (PAK6; 1 μM): 69 ± 2%
remaining activity at 10 µM (PAK6; 10 μM): 75 ± 4%
remaining activity at 1 µM (PKA; 1 μM): 80 ± 11%
remaining activity at 10 µM (PKA; 10 μM): 50 ± 2%
remaining activity at 1 µM (SGK1; 1 μM): 73 ± 14%
remaining activity at 10 µM (SGK1; 10 μM): 58 ± 5%
remaining activity at 1 µM (Src; 1 μM): 107 ± 4%
remaining activity at 10 µM (Src; 10 μM): 84 ± 13%
remaining activity at 1 µM (TAK1; 1 μM): 117 ± 22%
remaining activity at 10 µM (TAK1; 10 μM): 103 ± 5%
remaining activity at 1 µM (TIE2; 1 μM): 139 ± 74%
remaining activity at 10 µM (TIE2; 10 μM): 73 ± 11%
remaining activity at 1 µM (TLK1; 1 μM): 130 ± 13%
remaining activity at 10 µM (TLK1; 10 μM): 124 ± 4%
remaining activity at 1 µM (TTBK1; 1 μM): 119 ± 5%
remaining activity at 10 µM (TTBK1; 10 μM): 102 ± 2%
remaining activity at 1 µM (TTK; 1 μM): 104 ± 2%
remaining activity at 10 µM (TTK; 10 μM): 91 ± 5%
remaining activity at 1 µM (ULK2; 1 μM): 110 ± 11%
remaining activity at 10 µM (ULK2; 10 μM): 49 ± 9%
remaining activity at 1 µM (VEG-FR; 1 μM): 113 ± 10%
remaining activity at 10 µM (VEG-FR; 10 μM): 88 ± 28%
remaining activity at 1 µM (WNK1; 1 μM): 125 ± 17%
remaining activity at 10 µM (WNK1; 10 μM): 122 ± 35%
remaining activity at 1 µM (p38a MAPK; 1 μM): 128 ± 7%
remaining activity at 10 µM (p38a MAPK; 10 μM): 113 ± 2%
